Results: ChEMBL document CHEMBL3044689, “Synthesis and Rice-Blast Control Activity of Sulfonylamidines” (1992)

Assays:
Format in all cases: functional
[1] = test system: Pyricularia oryzae; test: Antifungal activity against Magnaporthe oryzae infected on compound treated rice seedlings at 7.8 ppm incubated for 24 hr in moist chamber followed by incubation for 5 days in greenhouse conditions
[2] = test system: Pyricularia oryzae; test: Antifungal activity against Magnaporthe oryzae infected on compound treated rice seedlings at 31.3 ppm incubated for 24 hr in moist chamber followed by incubation for 5 days in greenhouse conditions
[3] = test system: Pyricularia oryzae; test: Antifungal activity against Magnaporthe oryzae infected on compound treated rice seedlings at 125 ppm incubated for 24 hr in moist chamber followed by incubation for 5 days in greenhouse conditions
[4] = test system: Pyricularia oryzae; test: Antifungal activity against Magnaporthe oryzae infected on compound treated rice seedlings at 500 ppm incubated for 24 hr in moist chamber followed by incubation for 5 days in greenhouse conditions

Compound | Activity [4] [%] | other results
CCCCC/C(=N/S(=O)(=O)c1ccc(C)cc1)N(CC)CC | 90 | Activity [1]: 30%; Activity [2]: 70%; Activity [3]: 90%
C/C(=N/S(=O)(=O)c1ccc(C)cc1)N(C)C | 70 | 
CCN(CC)/C(=N\S(=O)(=O)c1ccc(C)cc1)C1CCCCC1 | 30 | 
Cc1ccc(S(=O)(=O)/N=C(/c2ccc([N+](=O)[O-])cc2)N(C)C)cc1 | 0 | 
CC(C)OP(=O)(OC(C)C)SCc1ccccc1 [IPROBENFOS] | 70 | Activity [1]: 0%; Activity [2]: 30%; Activity [3]: 50%
CCCCCC/C(=N/S(=O)(=O)c1ccc(Cl)cc1)N(CC)CC | 30 | 
CCCCCCCCCCCCC/C(=N/S(=O)(=O)c1ccc(C)cc1)N(CC)CC | 30 | 
Cc1ccc(S(=O)(=O)/N=C(/c2ccc(Cl)c(Cl)c2)N(C)C)cc1 | 50 | 
CCCCCC/C(=N/S(=O)(=O)c1ccc(C)cc1)N1CCCCC1 | 50 | 
CCOC(=O)/C(=N/S(=O)(=O)c1ccc(C)cc1)N(C)C | 50 | 
Cc1ccc(S(=O)(=O)N=C(N(C)C)N(C)C)cc1 | 30 | 
CCCCCC/C(=N/S(=O)(=O)c1ccccc1Cl)N(CC)CC | 0 | 
CCCCCC/C(=N/S(=O)(=O)c1ccc(C)cc1)N(CCCC)CCCC | 0 | 
COc1ccc(/C(=N/S(=O)(=O)c2ccc(C)cc2)N(C)C)cc1 | 70 | 
Cc1ccc(S(=O)(=O)/N=C(/c2ccc(N(C)C)cc2)N(C)C)cc1 | 0 | 
CCCCCC/C(=N/S(=O)(=O)c1ccc(C)cc1)N1CCCC1 | 30 | 
CCCCCC/C(=N/S(=O)(=O)c1ccc(C)cc1)N1CCN(C)CC1 | 30 | 
CCCCCC/C(=N/S(=O)(=O)c1ccc(C)cc1)N1CCOCC1 | 30 | 
CCCCCCCCCCC/C(=N/S(=O)(=O)c1ccc(C)cc1)N(CC)CC | 50 | 
COC(=O)c1ccccc1/C(=C/S(=O)(=O)c1ccc(C)cc1)N(C)C | 0 | 
CO/C(=N/S(=O)(=O)c1ccc(C)cc1)N(C)C | 0 | 
CCN(CC)/C(=N\S(=O)(=O)c1ccc(C)cc1)C(C)(C)C | 0 | 

Compound | Activity [4] [%] | other results
CCCCCCC/C(=N/S(=O)(=O)c1ccc(C)cc1)N(CC)CC | 90 | Activity [1]: 30%; Activity [2]: 70%; Activity [3]: 90%
CCCCCCCC/C(=N/S(=O)(=O)c1ccc(C)cc1)N(CC)CC | 70 | 
Cc1ccc(S(=O)(=O)/N=C(/c2ccccc2)N(C)C)cc1 | 30 | 
CCCCCC/C(=N/S(=O)(=O)c1ccc(C)cc1)N(C)C | 70 | 
C/C=C/C(=N/S(=O)(=O)c1ccc(C)cc1)N(C)C | 30 | 
CCCC/C(=N/S(=O)(=O)c1ccc(C)cc1)N(CC)CC | 70 | 
CCC/C(=N/S(=O)(=O)c1ccc(C)cc1)N(C)C | 70 | 
Cc1ccc(S(=O)(=O)/N=C(/c2ccc(Cl)cc2)N(C)C)cc1 | 0 | 
CCCCCCCCC/C(=N/S(=O)(=O)c1ccc(C)cc1)N(CC)CC | 50 | 
Cc1ccc(/C(=N/S(=O)(=O)c2ccc(C)cc2)N(C)C)cc1 | 70 | 
CCCCCC/C(=N/S(=O)(=O)c1ccc(C)cc1)N(CC)CC | 97 | Activity [1]: 50%; Activity [2]: 90%; Activity [3]: 90%
CCCCCCCCCC/C(=N/S(=O)(=O)c1ccc(C)cc1)N(CC)CC | 50 | 
CCCCCCCCCCCCCCC/C(=N/S(=O)(=O)c1ccc(C)cc1)N(CC)CC | 0 | 
CCCCCC/C(=N/S(=O)(=O)c1ccccc1)N(CC)CC | 30 | 
CCSC1=NS(=O)(=O)c2ccccc2N1C | 90 | Activity [1]: 0%; Activity [2]: 30%; Activity [3]: 70%
CS/C(=N/S(=O)(=O)c1ccc(C)cc1)N(C)C | 30 | 
Cc1ccc(S(=O)(=O)/N=C(/C2CCCCC2)N(C)C)cc1 | 50 | 
Cc1ccc(S(=O)(=O)/N=C(/CC(C)Br)N(C)C)cc1 (stereo not drawn) | 30 | 
CCN(CC)/C(CC(C)C)=N\S(=O)(=O)c1ccc(C)cc1 | 0 | 
CCN(CC)/C(=N\S(=O)(=O)c1ccc(C)cc1)C(C)C | 0 | 
CCCCCC/C(=N/S(=O)(=O)c1ccc(C)cc1)N(CCC)CCC | 50 | 
